From a melting point compilation (Tetko et al.; mined from patent text by program, amines drawn as free bases though some values may be those of a salt)

Compound	melting point [°C]
CC=C(C)C1CCC2C3CCC4=CC(=O)CCC4(C)C3CCC12C (stereo not given)	157 to 165
Cc1cc(O)c(SCC(C)C)c(=O)o1	106 to 108
COc1c(C)c(C)c(OC)c(CC=C(C)CO)c1C	85 to 86
CCCCCCCCCCCCCCCCCCCCCC(=O)OCC1CC1	44
COc1ccc(-c2csc(Nc3cc(C)ccn3)n2)cc1OC	211 to 213
Nc1cc(Br)ccc1C(=O)NCc1ccc(Br)cc1F	143 to 144
c1cc(-c2nccs2)nc(C2OCCO2)c1	71
CC(C)c1ccc(-n2nnc(-c3ccc(O)cc3)n2)cc1	158 to 160
COCc1cc(C(O)CNCCCCCOCCc2ccc(F)cc2)ccc1O (stereo not given)	86 to 87
Cc1ccc(S(=O)(=O)NN)cc1	110
CCOC(=O)C(=CNC1CC1)C(=O)c1cc(F)c(F)c(C)c1F	73 to 75
COc1cc2c3ccc(OC)c(OC)c3n(Cc3ccc(Br)cc3)c2cc1OC	143 to 144
CCOC(=O)c1ccc(-c2ccc(-c3cccc(OCOC)c3)c(-c3ccc4c(c3)C(C)(C)CCC4(C)C)c2)cc1	103 to 104
COc1cc(-c2cccs2)cc(OC)c1C=O	168 to 170
O=C1CC2c3ccccc3CCN2C2CCCC12 (stereo not given)	101 to 102
CC[C@H](COC)n1cc(Br)nc(N2CCc3cc(Cl)cc(Cl)c32)c1=O	150 to 152
Nc1cc(C(=O)O)c(F)c(F)c1F	164 to 166
Cc1onc(NS(=O)(=O)c2cccs2)c1Br	156 to 158
Cn1c(=O)cc(CCc2ccc(Cl)s2)c2cc(C(O)(c3ccc(Cl)cc3)c3cccnc3)ccc21 (stereo not given)	110
CCN(c1ccc(C#N)cc1)S(=O)(=O)c1ccc(C)cc1	85.4 to 86.6
CCn1c(CCOC(N)=O)nc(C(C)C)c1Sc1cc(Cl)cc(Cl)c1	161 to 162

Compound	melting point [°C]
CCc1nc(NC(=N)N)sc1-c1cccc([N+](=O)[O-])c1	149 to 151
COc1ncnc(-c2ccc(Cl)cc2Cl)c1C#N	107 to 109
N#CSCSc1nc(Cl)c(Cl)nc1Cl	90 to 93
O=c1c2c[nH]c3ccccc3c-2nn1-c1cnc2ccccc2c1	> 350
COc1ccc(-c2nc3cnncc3[nH]2)c(N(C)C)c1	226
NC(=O)c1cc(O)cc2nc(-c3ccc(O)cc3)oc12	325
Cc1ccn2c(C)c(-c3ccc4c(c3)NC(=O)CO4)nc2c1	239 to 241
ClCCCOc1cccc(OCCCCl)c1	135 to 136
CC(C)(C)c1ccc(SC(CCl)S(=O)(=O)c2ccc(Cl)cc2)cc1 (stereo not given)	52 to 68
NOCc1nnc2n1-c1ccc(Cl)cc1C(c1ccccc1)=NC2	183 to 186
Nc1c(Br)cc([N+](=O)[O-])cc1C(F)(F)F	84
COC(=O)c1cc(Br)c2cc(Cc3ccc(F)cc3)cnc2c1O	152
COc1cc2c(cc1OC)C(C(C)C)C(=O)CC2 (stereo not given)	77 to 79
Nc1nc2[nH]c(CCC#Cc3ccc(C(=O)N[C@@H](CCC(=O)O)C(=O)O)o3)cc2c(=O)[nH]1	193 to 194
C=CCC(Oc1cccc(C)c1C)C1=NCCN1 (stereo not given)	72 to 74
COCCOc1cc([N+](=O)[O-])c2[nH]c(C3=NCC(C(OC)OC)S3)cc2c1 (stereo not given)	100 to 101
O=C1NS(=O)(=O)CCC1c1ccc([N+](=O)[O-])cc1F (stereo not given)	218 to 219
O=C(NCc1ccc2c(c1)OCO2)c1ccc(C(=O)NCc2ccc3c(c2)OCO3)s1	207 to 209
CNC(=O)Nc1ccc(-c2ccncc2)c(C)n1	213 to 214
Cc1csc(C)c1N(N)C(=O)CN	68 to 70
CC(=O)OCC1OC(n2cc(C(Cl)=CI)c(=O)[nH]c2=O)CC1OC(C)=O (stereo not given)	81 to 83

Second part, the compound after the results:

melting point [°C]	Compound
192 to 194	OCCC(c1ccccc1)C(O)(c1ccccc1)c1ccc(O)cc1 (stereo not given)
97 to 99	CCCCCC(=O)Nc1ccc2ccn(CCCCCCC(=O)NS(=O)(=O)c3ccccc3)c2c1
236 to 238	CCOC(=O)Nc1nc(-c2ccccc2)c(-c2nc3ccccc3c(=O)n2-c2ccccc2Cl)s1
240 to 244	O=C(CN1CCN(c2ccncc2)CC1)c1ccc(CC(O)=S)cc1
95 to 96	O=C(O)CNC(=O)CSCCCCc1ccc2c(c1)OCO2
126 to 128	Cc1cc(O)ccc1-c1nn(CC(C)C)c2c(F)cccc12
98	COc1ccc(N=C(C#Cc2ccccc2)N2CCN(Cc3ccc(F)cc3)CC2)cc1
105 to 107	CCOCCn1c(COc2cccc(CO)c2)nc2ccccc21
72 to 74	CCOC(=O)C(=O)c1ccc(C)[nH]1
128 to 130	CCCCc1cc2cc(O)ccc2c(Oc2ccc(/C=C/C(=O)O)cc2)c1-c1ccccc1
88 to 95	CC(C)c1cccc(C(C)C)c1NC(=O)CN
175 to 176	O=C(O)c1cccc(-c2cccc3nc(Cc4cccc(C(F)(F)F)c4)oc23)c1
133 to 134	NCCON=C1c2ccccc2C2CC2c2ccccc21 (stereo not given)
119 to 122	Oc1cccc2c1c1ccccc1n2Cc1ccccc1
200 to 201	CC(C)(C)OC(=O)N1CCC2(CC1)C(=O)N(CC(=O)O)CN2c1ccccc1
58 to 61	CCOC(=O)c1ccc(NC(=O)C(C)CS)nc1 (stereo not given)
203 to 204	COC(=O)c1ccc(-c2nc(NCc3ccc(OC)c(Cl)c3)c3c(n2)sc2ccccc23)cc1
133 to 135	CCC(=O)OC(C)c1ccc(-c2ccc(O)cc2)cc1 (single isomer, unassigned; (+))
155 to 158	CS(=O)CC(C)(C)NC(=O)c1c(I)cccc1-c1ccc(C(F)(F)F)cc1 (stereo not given)
87 to 88	CC(CC(=O)O)c1ccc(-c2ccccc2F)cc1 (stereo not given)
184 to 185	C#Cc1ccc2c(c1)c1cc(-c3ccc(Cl)cc3Cl)c(=O)n(C)c1n2C

melting point [°C]	Compound
194 to 195	CC(O)=C1C(c2ccccc2)=C(c2ccc(S(C)(=O)=O)cc2)C1(Cl)Cl
138 to 141	CN1CCCC1=NC(=O)Nc1ccc(Cl)cc1
290 to 293	COC(=O)c1cc(=O)c2oc3ccccc3c(=O)c2n1C
285	Cc1ccc(N2C(=O)C(O)=C(C(=O)c3ccc(C(C)C)cc3)C2c2ccc(Cn3nccn3)cc2)nn1 (stereo not given)
205 to 210	OCCN1CCN(C2=Nc3cc(F)ccc3Nc3ccsc32)CC1
194 to 197	Cc1ccc2[nH]c(C(=O)c3ccc(Cl)cc3)c(CC(=O)O)c2c1
210	O=C(O)c1ccn2c1C(c1cccnc1)CC2 (stereo not given)
235 to 237	Cc1nccn1CCCNC(=O)c1cc2ccccc2[nH]1
238 to 240	O=C(Nc1cccnc1)c1c(OCC2CC2)ccc2oc3ccccc3c12
193 to 196	NC(=S)NN=Cc1ncc([N+](=O)[O-])n1Cc1ccccc1
108	COCCn1c(SC)nc(-c2ccc(F)cc2)c1-c1ccnc(Nc2ccccc2)c1
221 to 223	CCOCc1nc2c(N)nc3ccccc3c2n1CC1(OCCS(C)(=O)=O)CCC1
135 to 137	CC(=O)NCC1CC1c1c(Br)ccc2nn(C)cc12 (stereo not given)
157 to 159	COC(=O)C1C(=O)CCN(N2CCCCC2)C1=O (stereo not given)
70	CC(C)(C)OC(=O)[C@H]1C[C@@H](C(=O)OCc2ccccc2)[C@@H](c2ccccc2)N1 (racemic)
165 to 166	CNC(=O)c1cccc(NC(=O)Cc2cccc(Cl)c2)c1
59.9 to 63.9	CCc1nn2ccccc2c1N(CCCF)C(=O)COC
201	COc1ncc(NS(=O)(=O)c2cccc3c(N(C)C)cccc23)c(OC)n1
96 to 97	COc1ccc2c(n1)c(CCNC(C)=O)c1n2Cc2ccccc2-1
122 to 123	CCC(=O)SCC(CC(=O)c1ccc(Br)cc1)C(=O)O (stereo not given)
295 to 297	CC(O)c1ccc2c3c1ccn3C(=O)CNC2 (stereo not given)

melting point [°C]	Compound
247 to 248	CC(=O)Oc1ccc2c(c1)CCC1C3CCC(=O)C3(C)CC(=O)C21O (stereo not given)
134 to 138	COC(=O)C=C(Nc1coc2cc(OC)ccc2c1=O)C(=O)OC
310 to 313	O=C(Cc1ccccc1)N1CCc2[nH]c(=O)n3nc(-c4ccccc4F)nc3c2C1
125 to 126	COc1cccc(OC)c1CN1CCC(=O)C(C(c2ccc(F)cc2)c2ccc(F)cc2)C1 (stereo not given)
64 to 68	CC(CCNc1cccc(-c2ccnc3c(C(=O)c4cccs4)cnn23)c1)c1ccccc1 (stereo not given)
89 to 90	CC(C)(C)OC(=O)N1CCN(Cc2ccccc2)C(=O)C1
160 to 162	N#Cc1c(N2CCCCC2)cc(-c2ccco2)c2c1Cc1ccccc1-2
168	CN1CCCC(Nc2nc3ccccc3[nH]2)CC1 (stereo not given)
88.5 to 89.5	CCCC(=O)Nc1cc(C(F)(F)F)ccc1SCC#N
179 to 180	Fc1cc(F)cc(Cn2c(S)nc3ccccc32)c1
175	CCOC(=O)C(=O)Nc1ccc2cc(Br)ccc2c1[N+](=O)[O-]
90 to 91	CCNS(=O)(=O)c1ccc(NC(C)=O)cc1
163	CCC1OCCn2c1nc(C(=O)NCc1ccc(F)cc1-n1ncnc1C)c(OCc1ccccc1)c2=O (stereo not given)
85 to 87	O=C(OCc1ccccc1)[C@H](Cc1ccccc1)NC(=O)N1CCOCC1
138	O=c1c2cc(Cl)ccc2ncn1CCCN1CCC(c2c[nH]c3ccccc23)CC1
139 to 140	CCOC(=O)C(Cl)=Cc1cc(-n2ncc(C(F)(F)F)cc2=O)c(F)cc1Cl
165 to 168	CNC(=O)C(Cc1ccc(OC)cc1)NC(=O)C(C)(CC(C)C)c1ccccc1S (stereo not given)
65 to 67	CC(Oc1ccccc1[N+](=O)[O-])C(=O)NCCO[N+](=O)[O-] (stereo not given)
148 to 149	COc1ccc2cc(C(=O)CCCCCCC(=O)O)ccc2c1
122 to 124	CSc1ccc(C(=O)C(=C(N)C(F)(F)F)c2ccc(F)cc2)cc1
155 to 156	O=C(O)C1=C(c2ccccc2)c2ccccc2CS1
